A value given as a limit tells only on which side of the number the result lay.

Consider 27 compounds from patent publication US8980888B2, “Pyrazole derivative” (Mochida Pharmaceutical Co., Ltd., priority 2013, dated 2015).

T1 sequence (Q9Y233 whole entry): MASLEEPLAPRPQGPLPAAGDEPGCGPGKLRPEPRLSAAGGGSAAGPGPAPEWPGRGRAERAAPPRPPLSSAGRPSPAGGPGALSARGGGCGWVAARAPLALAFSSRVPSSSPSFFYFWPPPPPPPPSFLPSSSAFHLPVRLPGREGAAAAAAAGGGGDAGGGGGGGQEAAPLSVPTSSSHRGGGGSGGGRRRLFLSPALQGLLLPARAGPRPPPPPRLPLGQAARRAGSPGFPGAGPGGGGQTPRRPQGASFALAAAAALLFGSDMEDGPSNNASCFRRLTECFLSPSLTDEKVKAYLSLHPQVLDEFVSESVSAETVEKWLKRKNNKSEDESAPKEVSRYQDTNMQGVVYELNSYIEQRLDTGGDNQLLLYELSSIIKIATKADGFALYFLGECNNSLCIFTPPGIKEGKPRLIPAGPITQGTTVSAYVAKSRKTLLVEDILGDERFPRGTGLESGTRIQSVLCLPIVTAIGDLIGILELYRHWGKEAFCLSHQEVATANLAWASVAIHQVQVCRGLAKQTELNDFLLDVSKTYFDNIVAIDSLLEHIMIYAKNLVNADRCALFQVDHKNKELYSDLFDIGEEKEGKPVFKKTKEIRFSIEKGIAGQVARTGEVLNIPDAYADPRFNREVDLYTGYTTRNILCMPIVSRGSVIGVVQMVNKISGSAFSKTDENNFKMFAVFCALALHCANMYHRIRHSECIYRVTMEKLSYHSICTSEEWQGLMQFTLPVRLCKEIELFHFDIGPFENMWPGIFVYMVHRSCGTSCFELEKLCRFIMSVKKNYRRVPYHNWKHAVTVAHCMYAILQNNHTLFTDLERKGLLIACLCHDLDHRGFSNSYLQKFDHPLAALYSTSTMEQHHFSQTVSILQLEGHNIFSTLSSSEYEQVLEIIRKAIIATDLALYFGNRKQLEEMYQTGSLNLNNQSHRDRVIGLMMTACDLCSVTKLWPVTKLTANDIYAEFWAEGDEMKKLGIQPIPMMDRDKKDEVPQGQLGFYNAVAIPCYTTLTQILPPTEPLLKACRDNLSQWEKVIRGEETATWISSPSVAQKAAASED

The assay has as its target T1, Human PDE10 (Homo sapiens, UniProt Q9Y233).
T1 construct: purchased BPA Bioscience (so in the source)
Description: Human PDE10 inhibitory effect (IMAP TR-FRET enzyme inhibition assay). The following applies: PDE10 inhibitory activity, cAMP substrate. It counts as biochemical. Here is the method:
(Evaluation of Enzyme Inhibitory Activity: Human PDE10 Inhibitory Effect)
IMAP TR-FRET Phosphodiersterase Evaluation Assay Kit (Molecular Device) was used for the measurement. Ten μL of a diluted test compound having each concentration and 5 μL of the enzyme PDE10 (BPA Bioscience) that had been diluted to 2 ng/mL with 1×IMAP Reaction Buffer (prepared with 5× included with the kit, 10 mM Tris-HCl, pH=7.2, 10 mM MgCl2, 0.05% NaN3, and 0.1% BSA) containing 0.1% BSA were added to a 384-well plate (Corning). The obtained mixture was then pre-incubated at room temperature for 5 minutes. Thereafter, 5 μL of cAMP substrate solution which was included with the kit and diluted to 400 nM with 1×IMAP Reaction Buffer containing 0.1% BSA, was added to the reaction solution, and the obtained mixture was reacted at room temperature for 60 minutes. Thereafter, 60 μL of an IMAP TR-FRET Binding solution included with the kit was further added to the reaction solution, and the obtained mixture was then left for 3 hours or more. Subsequently, using ARVO SX (PerkinElmer), the fluorescent intensity of Terbium (Emission=490 nm) and TR-FRET (Emission=520 nm) in the reaction solution were measured at an excitation wavelength of 340 nm, so as to calculate the amount of the generated 5′-AMP. The count of a well to which a solvent had been added instead of the test compound was set at 0%, and the count of a well to which the enzyme PDE10 had not been added was set at 100%. Thus, the inhibitory activity of each test compound was calculated.
The PDE10 inhibitory activity of the test compound was indicated with an IC50 value. […] The test compounds are shown in Table 3 (Table 3-1 and Table 3-2).
On to `Cc1csc(-c2cnn(C)c2C(=O)NC2CCn3cc(-c4ccccc4)nc3C2)n1` (stereo not drawn) [Example 2.1, 1-methyl-4-(4-methylthiazol-2-yl)-N-(2-phenyl-5,6,7,8-tetrahydroimidazo[1,2-a]pyridin-7-yl)-1H-pyrazole-5-carboxamide], for which the IC50 is < 5 nM.
Consider `Cc1nc(-c2cnn(C)c2C(=O)NC2CCn3cc(-c4ccccc4)nc3C2)sc1C` (stereo not drawn) [Example 2.2, 4-(4,5-dimethylthiazol-2-yl)-1-methyl-N-(2-phenyl-5,6,7,8-tetrahydroimidazo[1,2-a]pyridin-7-yl)-1H-pyrazole-5-carboxamide], for which the concentration for half-maximal inhibition (IC50) is < 5 nM.
`Cc1sc(-c2cnn(C)c2C(=O)NC2CCn3cc(-c4cccc(F)c4)nc3C2)nc1C(F)F` (stereo not drawn) [Example 2.7, 4-(4-(difluoromethyl)-5-methylthiazol-2-yl)-N-(2-(3-fluorophenyl)-5,6,7,8-tetrahydroimidazo[1,2-a]pyridin-7-yl)-1-methyl-1H-pyrazole-5-carboxamide]: the 50% inhibitory concentration (IC50) is < 5 nM.
As to `Cc1nnc(-c2cnn(C)c2C(=O)NC2CCn3cc(-c4ccccc4)nc3C2)s1` (stereo not drawn) [Example 2.10, 1-methyl-4-(5-methyl-1,3,4-thiadiazol-2-yl)-N-(2-phenyl-5,6,7,8-tetrahydroimidazo[1,2-a]pyridin-7-yl)-1H-pyrazole-5-carboxamide], the IC50 was < 5 nM.
Compound `Cc1ccnc(-c2cnn(C)c2C(=O)NC2CCn3cc(-c4ccccc4)nc3C2)n1` (stereo not drawn) [Example 2.16, 1-methyl-4-(4-methylpyrimidin-2-yl)-N-(2-phenyl-5,6,7,8-tetrahydroimidazo[1,2-a]pyridin-7-yl)-1H-pyrazole-5-carboxamide] had an IC50 of 5 to 100 nM.
For `Cn1cnc(-c2cnn(C)c2C(=O)NC2CCn3cc(-c4ccccc4)nc3C2)c1` (stereo not drawn) [Example 2.17, 1-methyl-4-(1-methyl-1H-imidazol-4-yl)-N-(2-phenyl-5,6,7,8-tetrahydroimidazo[1,2-a]pyridin-7-yl)-1H-pyrazole-5-carboxamide] the value was 5 to 100 nM; for `Cc1nnc(-c2cnn(C)c2C(=O)NC2CCn3cc(-c4cc(F)ccc4F)nc3C2)s1` (stereo not drawn) [Example 2.18, N-(2-(2,5-difluorophenyl)-5,6,7,8-tetrahydroimidazo[1,2-a]pyridin-7-yl)-1-methyl-4-(5-methyl-1,3,4-thiadiazol-2-yl)-1H-pyrazole-5-carboxamide], 5 to 100 nM; for `Cn1ncc(-c2nc(C(F)F)cs2)c1C(=O)NC1CCn2cc(-c3cccc(F)c3)nc2C1` (stereo not drawn) [Example 2.20, 4-(4-(difluoromethyl)thiazol-2-yl)-N-(2-(3-fluorophenyl)-5,6,7,8-tetrahydroimidazo[1,2-a]pyridin-7-yl)-1-methyl-1H-pyrazole-5-carboxamide], < 5 nM.
Compound `Cc1ccc(-c2cnn(C)c2C(=O)NC2CCn3cc(-c4ccccc4)nc3C2)nc1` (stereo not drawn) [Example 2.21, 1-methyl-4-(5-methylpyridin-2-yl)-N-(2-phenyl-5,6,7,8-tetrahydroimidazo[1,2-a]pyridin-7-yl)-1H-pyrazole-5-carboxamide] returned an IC50 of 5 to 100 nM.
For the compound `Cc1ccnc(-c2cnn(C)c2C(=O)NC2CCn3cc(-c4cccc(F)c4)nc3C2)n1` (stereo not drawn) [Example 2.23, N-(2-(3-fluorophenyl)-5,6,7,8-tetrahydroimidazo[1,2-a]pyridin-7-yl)-1-methyl-4-(4-methylpyrimidin-2-yl)-1H-pyrazole-5-carboxamide], the IC50 fell in the range of 5 to 100 nM.
Turning to `Cc1cncc(-c2cnn(C)c2C(=O)NC2CCn3cc(-c4cccc(F)c4)nc3C2)n1` (stereo not drawn) [Example 2.24, N-(2-(3-fluorophenyl)-5,6,7,8-tetrahydroimidazo[1,2-a]pyridin-7-yl)-1-methyl-4-(6-methylpyrazin-2-yl)-1H-pyrazole-5-carboxamide], the IC50 lay within 5 to 100 nM.
For `Cn1ncc(-c2cscn2)c1C(=O)NC1CCn2cc(-c3ccccc3)nc2C1` (stereo not drawn) [Example 2.25, 1-methyl-N-(2-phenyl-5,6,7,8-tetrahydroimidazo[1,2-a]pyridin-7-yl)-4-(thiazol-4-yl)-1H-pyrazole-5-carboxamide] the value was 5 to 100 nM; for `Cn1ncc(-c2nccs2)c1C(=O)NC1CCn2cc(-c3ccccc3)nc2C1` (stereo not drawn) [Example 2.26, 1-methyl-N-(2-phenyl-5,6,7,8-tetrahydroimidazo[1,2-a]pyridin-7-yl)-4-(thiazol-2-yl)-1H-pyrazole-5-carboxamide], 5 to 100 nM.
The result for `Cn1ncc(-c2nc(C(C)(C)C)cs2)c1C(=O)NC1CCn2cc(-c3ccccc3)nc2C1` (stereo not drawn) [Example 2.27, 4-(4-(tert-butyl)thiazol-2-yl)-1-methyl-N-(2-phenyl-5,6,7,8-tetrahydroimidazo[1,2-a]pyridin-7-yl)-1H-pyrazole-5-carboxamide] reads 5 to 100 nM; that for `Cc1cccnc1-c1cnn(C)c1C(=O)Nc1cc2nc(-c3ccccc3)nn2cc1F` [Example 3.1, N-(6-fluoro-2-phenyl-[1,2,4]triazolo[1,5-a]pyridin-7-yl)-1-methyl-4-(3-methylpyridin-2-yl)-1H-pyrazole-5-carboxamide], < 5 nM; that for `Cc1cnc(-c2cnn(C)c2C(=O)Nc2cc3nc(-c4ccccc4)nn3cc2F)cn1` [Example 3.2, N-(6-fluoro-2-phenyl-[1,2,4]triazolo[1,5-a]pyridin-7-yl)-1-methyl-4-(5-methylpyrazin-2-yl)-1H-pyrazole-5-carboxamide], < 5 nM.
`Cc1cccc(-c2cnn(C)c2C(=O)Nc2cc3nc(-c4ccccc4)nn3cc2F)n1` [Example 3.3, N-(6-fluoro-2-phenyl-[1,2,4]triazolo[1,5-a]pyridin-7-yl)-1-methyl-4-(6-methylpyridin-2-yl)-1H-pyrazole-5-carboxamide]: the IC50 is < 5 nM.
The result for `Cn1ncc(-c2cc(F)ccn2)c1C(=O)Nc1cc2nc(-c3ccccc3)nn2cc1F` [Example 3.4, N-(6-fluoro-2-phenyl-[1,2,4]triazolo[1,5-a]pyridin-7-yl)-4-(4-fluoropyridin-2-yl)-1-methyl-1H-pyrazole-5-carboxamide] reads < 5 nM.
In the case of `Cc1ccnc(-c2cnn(C)c2C(=O)Nc2cc3nc(-c4ccccc4)nn3cc2F)c1` [Example 3.5, N-(6-fluoro-2-phenyl-[1,2,4]triazolo[1,5-a]pyridin-7-yl)-1-methyl-4-(4-methylpyridin-2-yl)-1H-pyrazole-5-carboxamide], the IC50 is < 5 nM.
Consider `Cn1ncc(-c2cccc(C(F)(F)F)n2)c1C(=O)Nc1cc2nc(-c3ccccc3)nn2cc1F` [Example 3.10, N-(6-fluoro-2-phenyl-[1,2,4]triazolo[1,5-a]pyridin-7-yl)-1-methyl-4-(6-(trifluoromethyl)pyridin-2-yl)-1H-pyrazole-5-carboxamide], for which the IC50 is < 5 nM.
For `Cn1ncc(-c2nc(C(F)F)c(Cl)s2)c1C(=O)Nc1ccn2nc(-c3ccccc3)nc2c1` [Example 3.20, 4-(5-chloro-4-(difluoromethyl)thiazol-2-yl)-1-methyl-N-(2-phenyl-[1,2,4]triazolo[1,5-a]pyridin-7-yl)-1H-pyrazole-5-carboxamide] the value was < 5 nM; for `COc1ccccc1-c1nc2cc(NC(=O)c3c(-c4nc(C(F)F)c(Cl)s4)cnn3C)cc(Cl)n2n1` [Example 3.21, N-(5-chloro-2-(2-methoxyphenyl)-[1,2,4]triazolo[1,5-a]pyridin-7-yl)-4-(5-chloro-4-(difluoromethyl)thiazol-2-yl)-1-methy 1-1H-pyrazole-5-carboxamide], 5 to 100 nM; for `Cc1cc(-c2cnn(C)c2C(=O)Nc2cc3nc(-c4ccccc4)nn3cc2F)nc(C)n1` [Example 3.30, 4-(2,6-dimethylpyrimidin-4-yl)-N-(6-fluoro-2-phenyl-[1,2,4]triazolo[1,5-a]pyridin-7-yl)-1-methyl-1H-pyrazole-5-carboxamide], < 5 nM.
For `COc1cc(-c2cnn(C)c2C(=O)Nc2cc3nc(-c4ccccc4)nn3cc2F)nc(OC)n1` [Example 3.40, 4-(2,6-dimethoxypyrimidin-4-yl)-N-(6-fluoro-2-phenyl-[1,2,4]triazolo[1,5-a]pyridin-7-yl)-1-methyl-1H-pyrazole-5-carboxamide] the value was < 5 nM; for `Cc1ncc(C)c(-c2cnn(C)c2C(=O)Nc2cc3nc(-c4ccccc4C)nn3cc2F)n1` [Example 3.50, 4-(2,5-dimethylpyrimidin-4-yl)-N-(6-fluoro-2-(o-tolyl)-[1,2,4]triazolo[1,5-a]pyridin-7-yl)-1-methyl-1H-pyrazole-5-carboxamide], < 5 nM.
The result for `C[C@H]1CCCN1c1nc2cc(NC(=O)c3c(-c4nc(C(F)F)cs4)cnn3C)ccn2n1` [Example 4.1, (S)-4-(4-(difluoromethyl)thiazol-2-yl)-1-methyl-N-(2-(2-methylpyrrolidin-1-yl)-[1,2,4]triazolo[1,5-a]pyridin-7-yl)-1H-pyrazole-5-carboxamide] reads < 5 nM; that for `C[C@H]1CCCN1c1nc2cc(NC(=O)c3c(-c4nc(C(F)F)c(Cl)s4)cnn3C)ccn2n1` [Example 4.2, (S)-4-(5-chloro-4-(difluoromethyl)thiazol-2-yl)-1-methyl-N-(2-(2-methylpyrrolidin-1-yl)-[1,2,4]triazolo[1,5-a]pyridin-7-yl)-1H-pyrazole-5-carboxamide], < 5 nM.
